≈ marks a conversion by molar mass, not a printed value.
Assays:
KB = assay: Cytotoxicity against human KB cells; assay type: functional
[1] = Cytotoxicity against african green monkey Vero cells after 24 hrs; assay type: cell-based; conditions: chlorocebus sabaeus, read-out: ED50

CCCCCCCCCC[C@@H](O)[C@@H](O)CC[C@H](O)[C@@H]1CC[C@@H]([C@@H](O)CCCCCCCCCCC(O)CC2=CC(C)(O)OC2=O)O1 (stereo not given in full) [PARISIN]
ED50 (KB): 1 ×10⁻⁴ ug/ml

CCCCC[C@H](O)[C@@H](O)CCC[C@@H](O)[C@@H]1CC[C@@H](C2CC(O)[C@@H]([C@@H](O)CCCCCCCCCCCCC3=CC(C)OC3=O)O2)O1 (stereo not given in full) [SALZMANOLIN]
EC50 (KB; Homo sapiens, KB, read-out: ED50 (the source's name)): 0.001 µg/mL (≈ 0.00153 µM) | CC50 at 24 h [1]: 0.01 µg/mL (≈ 0.0153 µM)

CC[C@]1(O)C[C@@H]2CN(CCc3c([nH]c4ccccc34)[C@@](C(=O)OC)(c3cc4c(cc3OC)N(C)[C@H]3[C@@](O)(C(=O)OC)[C@H](OC(C)=O)[C@]5(CC)C=CCN6CC[C@]43[C@@H]65)C2)C1 [VINBLASTINE]
ED50 (KB): 0.1 ×10⁻⁴ ug/ml | CC50 at 24 h [1]: > 0.1 µg/mL

Source: ChEMBL document CHEMBL1146526, “Two unusual acetogenins from the roots of Annona salzmanii” (J Nat Prod, 2003)
